“And” between values parts separate entries of the source, which are not always exact repeats. Equal values may be shown once. Read-outs that look alike come from different tables or passages of the source.
Key:
[1] = Pharmacokinetic attributes (no method given); conditions: in vivo
3D7 parasite cultures = experiment: Time of drug killing; type: cell-based, Plasmodium falciparum; conditions: 80nM WM4, 40nM WM5, 5nM WM382, added to early rings
Protocol: 3D7 parasite cultures were synchronized using 5% sorbitol (Sigma) twice at 46 h intervals then again when the culture was a mix of late schizonts and early rings. […] The parasitemia of each culture was quantitated every 8 h for 48 h by collecting 50 μL samples for counting by flow cytometry (as previously described). The developmental stage of the parasites was confirmed at each time point by microscopic examination of Giemsa stained thin blood films. Media and compound were replaced at the 32 h time point.

[2] = molecular target: T1, recombinant PMX protein (rPMX) (Plasmodium falciparum, UniProt Q8IAS0); experiment: biochemical
Protocol: (§2) All wells were backfilled to 200 nL DMSO such that it remains constant across the assay plates (1% final). IC50 values were calculated by Dotmatics 5.3 and Spotfire 7.11.1 software using a nonlinear regression four-parameter fit analysis. The equation used is sigmoidal dose response (variable slope), Y = bottom + (top − bottom)/(1+10((logEC50 − X) × Hill Slope)). Compound Ki values were calculated from the IC50s using the Cheng-Prusoff equation, Ki = IC50/(1 + [S]/Km).
(§3) All compound potency assays were conducted in 20 μl total volume. For each assay, 10 μl of recombinant enzymes in respective assay buffers (Table) were dispensed into compound containing assay plates using a Multidrop Combi dispenser and allowed to incubate for 15 min. The reactions were started with a further 10 μl addition of FRET peptide substrates and reactions incubated at 37 °C for various times (Table).Samples were excited at 340 nm and fluorescence emission measured at 492 nm using an Envision fluorescence plate reader (Perkin-Elmer).

[3] = molecular target: T1, recombinant PMX protein (rPMX)
Protocol: as §2, §3

P. falciparum [4] = experiment: P. falciparum asexual blood-stage growth inhibition (LDH or SYBR Green flow cytometry); type: cell-based, Plasmodium falciparum
Protocol: For High Throughput Screening (HTS) of compounds we used the lactate dehydrogenase (LDH) assay to detect parasitemia ([Makler et al., 1993], [Oduola et al., 1997]) formatted in a 384 well assay using an Echo555 (Labcyte). The P. falciparum assay was conducted with minor modifications ([Gamo et al., 2010]). Briefly, an inoculum of parasitized red blood cells at 0.7% parasitemia and 2% hematocrit in RPMI-1640, 5% AlbuMAX, 2% d-sucrose, 0.3% glutamine and 150 μM hypoxanthine was used for the assay. Assay plates (Greiner #781098, 384 well, white, tissue culture treated) were prepared by dispensing 1 μl of compound from master plates at 20 μM (10% DMSO stock) into 9ul pre-dispensed growth media in each well. The parasite inoculum (30 μl) was dispensed into plates containing compounds using a Multidrop Combi dispenser (Thermo Scientific). Final assay volume was 40 μl and final compound concentration was 500 nM. The positive growth control was 0.25% DMSO and the negative growth control was 100 nM chloroquine. Plates were incubated at 37 °C for 72 h in an atmosphere of […]. Following 72 h growth, plates were sealed with parafilm and frozen at −80 °C overnight. Plates were thawed at room temperature for at least 4 h prior to LDH activity being measured. 45 μl of fresh LDH reaction mix (174 mM sodium l-lactate, 214 μM 3-acetyl pyridine adenine dinucleotide (APAD), 270 μM Nitro Blue tetrazolium chloride (NBT), 4.35 U ml-1 diaphorase, 0.7% Tween 20, 100 mM Tris-HCl pH 7.5) was dispensed into each well using a Multidrop Combi dispenser. Plates were shaken to ensure mixing and absorbance at 650 nm was measured in an EnVision (PerkinElmer) plate reader after 30 min of incubation at room temperature. Data were normalized to percent growth inhibition using positive and negative controls and analyzed using Dotmatics 5.3 and Spotfire 7.11.1 (Tibco) software.
All wells were backfilled with DMSO to 45 nL such that this remained constant (0.1% DMSO). The positive growth control was 0.1% DMSO and the negative growth control was 100 nM chloroquine. Parasite inoculum (40 μl) was dispensed into plates containing compounds as described above. All other culture and lactate dehydrogenase (LDH) reaction methods are as described previously ([Makler et al., 1993], [Oduola et al., 1997]).
(§1) After 72 h incubation at 37°C each well was fixed at room temperature for 30 min with 50 μL of 0.25% glutaraldehyde (ProSciTech) diluted in PBS. Following centrifugation at 1200 rpm for 1 min, supernatants were discarded and parasites were stained with 50 μL of 5X SYBR Green (Invitrogen) diluted in PBS. 50,000 cells were counted by flow cytometry using a Cell Lab Quanta SC – MPL Flow Cytometer (Beckman Coulter) ([Bacon et al., 2007]). Growth was expressed as a percentage of the parasitemia obtained using a vehicle control. All samples were tested in triplicate. EC50 values were determined using GraphPad Prism.

[5] = molecular target: T2, P. falciparum aspartic protease, PMV (Plasmodium falciparum, UniProt Q8I6Z5); experiment: Peptide cleavage (FRET) assay, PMV; type: biochemical; conditions: calculated from IC50 with Cheng-Prusoff equation
T2 construct: made in house

P. berghei [6] = experiment: Peters' 4-day suppressive test for P. berghei infection in mice; type: in vivo, Plasmodium berghei; conditions: intraperitoneal, 20 mpk q.d., 4 days, Swiss mice
Protocol: For results shown in Figure 1 A male Swiss mice were infected intraperitoneally (IP) with 1 × 10^6 P. berghei ANKA-parasitised red blood cells withdrawn from a previously infected donor mouse. Test compounds were prepared in a vehicle consisting of 10% DMSO/90% Solutol (5% Solutol® HS-15 in 0.9% saline). […] Peripheral blood samples were taken 24 h after administration of the last dose, and parasitemia was measured by microscopic analysis of Giemsa-stained blood smears. Parasitemia values were averages for 6 mice per group and are expressed as percent parasitemia. For results shown in Figure 4A ‘donor’ female Swiss mice were infected intraperitoneally (IP) with blood stage P. berghei parasites constitutively expressing GFP (P. berghei ANKA GFPcon 259cl2 ([Franke-Fayard et al., 2004]). Three days later, groups of 4 ‘acceptor’ Swiss mice were infected intravenously (IV) with 1 × 10^7 parasitised erythrocytes from the ‘donor’ mice. Two h post infection, experimental mice (4 per cohort) were left untreated (control mice) or treated orally on 4 consecutive days with test drugs formulated in 20% DMSO/60% PG/20% water (v/v/v) or chloroquine dissolved in water. […] Peripheral blood samples were taken 12 h after the last treatment, and parasitemia measured by flow cytometry (proportion of GFP-positive cells in 100,000 recorded events using FACSCalibur, BD) and microscopic analysis of Giemsa-stained blood smears. Parasitemia values were averages for 4 mice per group and are expressed as percent parasitemia.

HepG2 cells = experiment: EC50 for HepG2 cells; type: cell-based; conditions: Homo sapiens
[7] = system: WM5 and 4 resistant P. falciparum; experiment: microbe, parasite or virus in culture; type: cell-based, Plasmodium falciparum
Protocol: as §1
The parent and resistant lines were then cloned by limiting dilution, the EC50 for each line was determined and genomic DNA was purified from clonal parasites (QIAGEN Blood and Tissue Kit).

[8] = system: protein processing by PMIX and PMX in P. falciparum; experiment: Processing inhibition assays (immunoblot of merozoites and supernatants); type: cell-based, Plasmodium falciparum; conditions: E64 10 μM, WM4 40 nM, WM382 2.5 nM
Protocol: Processing inhibition assays were performed as previously described ([Boyle et al., 2010]). Synchronized late trophozoite/early schizont cultures to which protease inhibitors had already been added, were passed over LD magnetic columns (Miltenyi Biotech) to remove uninfected erythrocytes. The cysteine protease inhibitor E64 (Sigma) was used at 10 μM. […] A control dish without any protease inhibitor was also included. Parasites were eluted from columns with complete RPMI 1640 culture medium to which the appropriate inhibitor at the same concentration had been added. Eluted parasites were adjusted to 5x10^6 schizonts/mL and 150 ul added per well of a 96-well flat-bottomed culture dish. […] Parasites from each condition were spun at 10000 g/10 min so that merozoite and supernatant fractions could be separately collected. Proteins from both fractions were extracted with Reducing sample buffer and separated on 4%–12% or 3%–8% acrylamide gels (NuPAGE, Invitrogen).

P. falciparum 3D7 = experiment: Ring stage survival assay for artesunate; type: cell-based, Plasmodium falciparum; conditions: 3D7, 700 nM artesunate 6 h, then 66 h drug-free
Protocol: The method for determining sensitivity to artesunate was as described ([Kite et al., 2016]). Parasites were synchronized twice with 5% sorbitol at 46 h intervals and again when they were a mixture of schizonts and early rings. Triplicate 1 mL cultures were set up in 24 well plates (Falcon) at 0.5% parasitemia and 2% hematocrit with either 700 nM artesunate (Sigma) or 0.1% DMSO vehicle control. Following 6 h incubation, the cells were washed and incubated in drug-free media for a further 66 h. A 50 μL sample of each culture was fixed with 0.25% glutaraldehyde and stained with 5X SYBR then parasitemia was determined by flow cytometry. Percentage survival is parasitemia relative to vehicle treated parasites.
The percentage survival of all parasite lines was high in our experiments (∼5% for 3D7) was high compared to that described previously ([Kite et al., 2016]) most likely because we used a FACS based method was used for detection and quantitation. However, we were clearly able to distinguish the resistant CAM3 R539T line from the sensitive CAM3 Rev and 3D7 parasite lines.

Dd2 parasites = type: cell-based, Plasmodium falciparum; conditions: inocula 10^5 to 10^9 parasites, up to 90 days
Source text: Each experiment was monitored by weekly microscopic examination of thin blood films. Media and compound were replaced three times each week.

P. falciparum [9] = experiment: P. falciparum humanized NOD-scid IL2R_null mouse model; conditions: chloroquine 50 mpk oral q.d. 4 days from day 3
Protocol: Compounds were tested in the murine P. falciparum SCID model ([Angulo-Barturen et al., 2008]). […] The mice were intravenously infected with 2 × 10^7 P. falciparum Pf3D7-infected erythrocytes (day 0) ([Angulo-Barturen et al., 2008]). On day 3 after infection, mice were randomly allocated to treatments that were administered once a day for 4 consecutive days (n = 3 mice) by oral gavage at 10 mL/kg. Parasitemia was measured by microscopy. Chimerism was monitored by flow cytometry using anti-murine erythrocyte TER119 monoclonal antibody (PharMingen, San Diego, CA) and SYTO-16 and then analyzed by flow cytometry in serial 2 μL blood samples taken every 24 h until assay completion.

P. berghei [10] = experiment: Dose ranging test for P. berghei infection in mice; type: in vivo, Plasmodium berghei; conditions: chloroquine 10 mpk oral q.d. 4 days
Protocol: Control mice were treated orally with chloroquine for 4 days under q.d. dosing regimen at 10 mpk/day. From day 2 to 30 post infection, parasitemia was measured daily by flow cytometry and microscopy, as described above. Survival of animals to day 30 post infection, with no detectable parasites in the peripheral blood, were considered to be cured (i.e., 100% efficacy).

[11] = 3D7 parasite line, asexual blood stage, read-out: EC50, inhibition of P. falciparum growth

T1 sequence (Q8IAS0 222-573): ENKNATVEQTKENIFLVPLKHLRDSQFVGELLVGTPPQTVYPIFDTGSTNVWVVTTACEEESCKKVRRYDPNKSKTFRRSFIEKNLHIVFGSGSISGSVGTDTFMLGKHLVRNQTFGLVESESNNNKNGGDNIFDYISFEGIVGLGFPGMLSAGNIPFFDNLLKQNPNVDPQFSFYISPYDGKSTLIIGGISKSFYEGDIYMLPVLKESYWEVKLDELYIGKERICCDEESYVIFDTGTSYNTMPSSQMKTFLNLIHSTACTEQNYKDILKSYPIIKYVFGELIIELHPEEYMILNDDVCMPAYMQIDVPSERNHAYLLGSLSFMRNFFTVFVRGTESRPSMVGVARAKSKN
T2 sequence (Q8I6Z5 whole entry): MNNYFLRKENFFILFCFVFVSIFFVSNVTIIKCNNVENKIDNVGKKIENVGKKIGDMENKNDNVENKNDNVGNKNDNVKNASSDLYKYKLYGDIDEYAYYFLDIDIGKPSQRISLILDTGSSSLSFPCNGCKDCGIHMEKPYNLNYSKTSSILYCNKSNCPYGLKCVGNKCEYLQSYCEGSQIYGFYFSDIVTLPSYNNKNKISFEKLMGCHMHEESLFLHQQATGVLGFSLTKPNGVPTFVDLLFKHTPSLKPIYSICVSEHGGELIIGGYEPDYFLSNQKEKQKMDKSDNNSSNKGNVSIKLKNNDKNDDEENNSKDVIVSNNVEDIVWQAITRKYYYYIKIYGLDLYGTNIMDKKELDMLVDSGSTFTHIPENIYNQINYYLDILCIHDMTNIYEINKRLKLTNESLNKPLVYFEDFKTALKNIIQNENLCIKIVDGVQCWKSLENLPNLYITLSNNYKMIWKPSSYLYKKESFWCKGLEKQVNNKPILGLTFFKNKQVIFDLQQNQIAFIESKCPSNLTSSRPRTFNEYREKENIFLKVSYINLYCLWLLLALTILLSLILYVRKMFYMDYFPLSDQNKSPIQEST

CC(C)CC(c1ccc(C(F)(F)F)c(C(=O)N2Cc3nccnc3C2)c1)N1C(=N)NC(CC2CC2)(c2ccccc2)CC1=O (racemic) [WM5]
pharmacokinetic attributes [1]: did not have desirable pharmacokinetic attributes | stage of arrest of blood-stage development (3D7 parasite cultures): arrested at late schizont stage | IC50 [2]: 3.02 nM | Ki [2]: 1.9 ± 0.6 nM | Fold Selectivity PMX v PMV [3]: 1,755 fold | EC50 (P. falciparum [4]; Plasmodium falciparum, Figure 2C, mean ± SD, three experiments, read-out: EC50 P. falciparum): 9.3 ± 2.7 nM | Ki [5]: 3300 ± 540 nM | in vivo activity against P. berghei infection (P. berghei [6]): partial efficacy | EC50 (HepG2 cells): 17900 ± 2000 nM | EC50 ([7]; Plasmodium falciparum, 3D7, read-out: EC50, 3D7, parental line 3D7): 13.5 ± 0.78 nM | EC50 ([7]; Plasmodium falciparum, 3D7, read-out: EC50, 3D7-WM4.1, WM4-resistant line 3D7-WM4.1): 202 ± 7.23 nM | EC50 ([7]; Plasmodium falciparum, 3D7, read-out: EC50, 3D7-WM4.2, WM4-resistant line 3D7-WM4.2, Figure S1): 144 ± 46.6 nM | EC50 ([7]; Plasmodium falciparum, 3D7, read-out: EC50, 3D7-WM5.1, WM5-resistant line 3D7-WM5.1): 172 ± 6.95 nM | EC50 ([7]; Plasmodium falciparum, 3D7, read-out: EC50, 3D7-WM5.2, WM5-resistant line 3D7-WM5.2, Figure S1): 118 ± 4.7 nM | EC50 ([7]; Plasmodium falciparum, 3D7, read-out: EC50, 3D7-WM5.3, WM5-resistant line 3D7-WM5.3, Figure S1): 51.8 ± 19.7 nM | fold resistance of 3D7-WM5.1 compared with 3D7 ([7]; printed as X in Figure 1E): 13 fold | EC50 ([7]; read-out: EC50, 3D7-WM4.1, WM4-resistant line 3D7-WM4.1): 107 ± 2.2 nM | EC50 ([7]; read-out: EC50, 3D7-WM5.1, WM5-resistant line 3D7-WM5.1): 172 nM and 117 nM | EC50 ([7]; read-out: EC50, 3D7, parental line 3D7): 11.1 ± 3.7 nM

CC(C)C[C@H](NC(=O)[C@H]1O[C@@H]1C(=O)O)C(=O)NCCCCN=C(N)N [E64, reference compound]
AMA1 processing in merozoites [8]: not affected | ASP processing [8]: ASP was processed | MTRAP processing [8]: did not inhibit its processing | PMIX processing in parasites [8]: not inhibited | RAP1 processing [8]: Two processed forms of RAP1 (p82 and p69) are detected | RON3 processing [8]: did not block processing | Rh1 processed fragments, release into the supernatant [8]: the processed fragments were released into the supernatant

CC(NC(=O)c1cccc(C(c2ccccc2)N2C(=N)NC(C)(C(C)C)CC2=O)c1)c1ccccc1 (stereo not shown) [R-WM4]
EC50 (P. falciparum [4]; [11]): 4.6 nM

CC(C)CC(c1ccc(C(F)(F)F)c(C(=O)N2Cc3nccnc3C2)c1)N1C(=N)NC(CC2CC2)(c2ccccc2)CC1=O (stereo not shown) [R-WM5]
EC50 (P. falciparum [4]; [11]): 10 nM

CC(NC(=O)c1cccc(C(c2ccccc2)N2C(=N)NC(C)(C(C)C)CC2=O)c1)c1ccccc1 (stereo not shown) [S-WM4]
EC50 (P. falciparum [4]; [11]): 440 ± 113 nM

CC(C)CC(c1ccc(C(F)(F)F)c(C(=O)N2Cc3nccnc3C2)c1)N1C(=N)NC(CC2CC2)(c2ccccc2)CC1=O (stereo not shown) [S-WM5]
EC50 (P. falciparum [4]; [11]): 688 ± 218 nM

C[C@H]1[C@H](OC(=O)CCC(=O)O)O[C@@H]2O[C@@]3(C)CC[C@H]4[C@H](C)CC[C@@H]1[C@@]24OO3 [artesunate]
percentage survival, ring stage survival assay (P. falciparum 3D7): ~5%

O=C1C(O)=C([C@H]2CC[C@H](c3ccc(Cl)cc3)CC2)C(=O)c2ccccc21 [atovaquone]
selection of resistant parasites, time to resistance (Dd2 parasites): Parasites resistant to atovaquone were selected

CCN(CC)CCCC(C)Nc1ccnc2cc(Cl)ccc12 (stereo not shown) [chloroquine, reference compound]
day by which mice were cleared of parasitemia (P. falciparum [9]): ≤ 7 days | day post-infection on which parasites were detectable (P. berghei [10]): 10 days

— article PMC7146544, “Dual Plasmepsin-Targeting Antimalarial Agents Disrupt Multiple Stages of the Malaria Parasite Life Cycle” (Cell Host & Microbe, 2020)
